Assay results from ChEMBL document CHEMBL1151147, “Furanoid lignans from Larrea tridentata” (J Nat Prod, 1990).
The source made the active and inactive calls. No cut-off for these calls is given here.

Assays:
Format in all cases: functional, organism-based
Rattus norvegicus [1] = assay: Antiimplantation activity in Sprague-Dawley rat assessed as decrease in implantation sites at 30 mg/kg administered postcoitally; parameters: dose 30 mg/kg
Rattus norvegicus [2] = assay: Estrogenic activity in Sprague-Dawley rat at 30 mg/kg; parameters: dose 30 mg/kg
Rattus norvegicus [3] = assay: Antiimplantation activity in Sprague-Dawley rat administered postcoitally
Rattus norvegicus [4] = assay: Antiimplantation activity in Sprague-Dawley rat at 5 mg/kg, po administered postcoitally; parameters: dose 5 mg/kg
Rattus norvegicus [5] = assay: Antiimplantation activity in Sprague-Dawley rat assessed as decrease in implantation sites at 60 mg/kg administered postcoitally; parameters: dose 60 mg/kg
Rattus norvegicus [6] = assay: Antiimplantation activity in Sprague-Dawley rat assessed as decrease in fertility rate at 30 mg/kg administered postcoitally; parameters: dose 30 mg/kg
Rattus norvegicus [7] = assay: Antiimplantation activity in Sprague-Dawley rat assessed as absence of viable fetuses at 15 mg/kg administered postcoitally; parameters: dose 15 mg/kg

With `C[C@H]1[C@H](c2ccc(O)cc2)c2cc(O)c(O)cc2C[C@H]1C` the Activity (Rattus norvegicus [1]) was “Active”, the Activity (Rattus norvegicus [2]) was “Active” and the Activity (Rattus norvegicus [3]) was “Dose-dependent effect”. The Activity (Rattus norvegicus [4]) was “inactive”, the Activity (Rattus norvegicus [5]) was “Active” and the Activity (Rattus norvegicus [6]) was “Active”. The Activity (Rattus norvegicus [7]) was “Active”.
